Where two headings read alike, the source gives them in different places.
What was measured:
TR-α = molecular target: T1, TR-α (Homo sapiens, UniProt P10827); test: Binding to TR isoform TR-α
T1 sequence (P10827 1-410 isoform P10827-2): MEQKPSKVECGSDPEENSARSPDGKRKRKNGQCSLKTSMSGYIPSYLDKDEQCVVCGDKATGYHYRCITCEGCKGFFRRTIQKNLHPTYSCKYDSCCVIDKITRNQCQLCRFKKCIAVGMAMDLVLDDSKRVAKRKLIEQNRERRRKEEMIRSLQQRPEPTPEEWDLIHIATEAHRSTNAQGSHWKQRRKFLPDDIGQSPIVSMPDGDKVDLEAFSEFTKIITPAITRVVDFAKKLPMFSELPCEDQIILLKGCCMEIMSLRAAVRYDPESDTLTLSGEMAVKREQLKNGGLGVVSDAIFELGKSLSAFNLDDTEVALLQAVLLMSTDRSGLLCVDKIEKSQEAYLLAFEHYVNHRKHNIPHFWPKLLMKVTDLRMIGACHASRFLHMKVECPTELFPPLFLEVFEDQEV
From the text: Assays for determining selective binding to the TR-α or TR-β LBD can include reporter assays, as described herein.

TR-β = molecular target: T2, TR-β (Homo sapiens, UniProt P10828); test: Binding to TR isoform TR-β
T2 sequence (P10828 1-461): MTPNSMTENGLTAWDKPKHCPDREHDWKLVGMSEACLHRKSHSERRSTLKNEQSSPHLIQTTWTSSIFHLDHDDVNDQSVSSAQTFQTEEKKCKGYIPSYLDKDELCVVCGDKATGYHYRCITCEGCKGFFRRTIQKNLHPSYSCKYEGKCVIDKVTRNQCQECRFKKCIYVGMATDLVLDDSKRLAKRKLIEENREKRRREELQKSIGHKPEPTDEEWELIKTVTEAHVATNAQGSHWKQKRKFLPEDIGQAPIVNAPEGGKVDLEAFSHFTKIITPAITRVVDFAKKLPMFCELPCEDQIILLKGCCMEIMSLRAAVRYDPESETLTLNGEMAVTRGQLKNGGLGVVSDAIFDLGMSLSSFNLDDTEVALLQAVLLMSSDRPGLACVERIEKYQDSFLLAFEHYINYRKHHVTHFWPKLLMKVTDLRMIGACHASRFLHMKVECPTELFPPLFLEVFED
Procedure: 3,5-dibromo-4-(3′,5′-diisopropyl-4′-hydroxyphenoxy)Benzoic Acid is a TR-α Selective Synthetic Ligand. [drawing 4] 3,5-dibromo-4-(3′,5′-diisopropyl-4′-hydroxyphenoxy)benzoic acid (Compound 11), the structure of which is drawn above, is assayed for binding to the two different isoforms of the TR, TR-α and TR-β. […] Assays for determining selective binding to the TR-α or TR-β LBD can include reporter assays, as described herein. See also Hollenberg, et al., J. Biol. Chem., (1995) 270(24):14274-14280.

TR binding to RIP-140 = test: RIP-140 coactivation assay (35S-RIP-140 binding to liganded TR); format: biochemical; set-up: key: +: RIP-140 Binding; −: RIP-140 Binding
Procedure: To test the ability of TR ligands to activate the binding of TR to the nuclear activation protein RIP-140 (a nuclear protein that can bind to nuclear receptors, such as the estrogen receptor), a TR ligand is liganded to TR and then incubated with RIP-140 as described in V. Cavailles, et al., EMBO J., 14(15):3741-3751 (1995), which is incorporated by reference herein. In this assay, 35S-RIP-140 protein binds to liganded TR but not unliganded TR.

[1] = system: thyroid hormone receptors (TRs); test: CAT reporter gene activation in cultured cells; format: cell-based; details: U-937
Procedure: To test TR activation of transcription in a cellular environment, TR ligands are assayed for their ability to activate a reporter gene, chloramphenicol transferase (“CAT”), which has a TR DNA binding sequence operatively linked to it. Either GC or […] cells (available from the ATCC) can be used, respectively). In such assays, a TR ligand crosses the cell membrane, binds to the TR, and activates the TR, which in turn activates gene transcription of the CAT by binding the TR DNA binding region upstream of the CAT gene. The effective concentration for half maximal gene activation (EC50) is determined by assaying CAT gene activation at various concentrations as described herein and in the literature.
After electroporation, cells are pooled in growth medium (RPMI with 10% charcoal-treated, hormone stripped, newborn bovine serum), plated in 6-well dishes and treated with either ethanol or hormone. CAT activity is determined 24 hours later as described D. C. Leitman, R. C.

TR [2] = details: cited from earlier work
human TR-β LBD = molecular target: T3, human TR-β LBD (Homo sapiens, UniProt P10828); test: Competition for [125I]T3 binding, native TR-β; details: read-out: Binding Affinity, Native TR-β
T3 sequence (P10828 217-461 limits assumed): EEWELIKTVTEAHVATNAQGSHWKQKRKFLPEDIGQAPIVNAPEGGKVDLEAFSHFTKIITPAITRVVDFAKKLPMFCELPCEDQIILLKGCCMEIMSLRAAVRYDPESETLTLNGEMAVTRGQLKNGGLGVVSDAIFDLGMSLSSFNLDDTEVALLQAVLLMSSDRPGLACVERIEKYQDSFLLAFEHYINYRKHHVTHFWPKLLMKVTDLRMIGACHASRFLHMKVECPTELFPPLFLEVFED
Procedure: Assays are performed in duplicate.
The following assays residues involved in selective binding among TR isoforms.

human TR-α LBD = molecular target: T4, human TR-α LBD (Homo sapiens, UniProt P10827); test: Competition for [125I]T3 binding, native TR-α; details: read-out: Binding Affinity, Native TR-α; competition with 1 nM [125I]T3
T4 sequence (P10827 163-410 isoform P10827-2 limits assumed): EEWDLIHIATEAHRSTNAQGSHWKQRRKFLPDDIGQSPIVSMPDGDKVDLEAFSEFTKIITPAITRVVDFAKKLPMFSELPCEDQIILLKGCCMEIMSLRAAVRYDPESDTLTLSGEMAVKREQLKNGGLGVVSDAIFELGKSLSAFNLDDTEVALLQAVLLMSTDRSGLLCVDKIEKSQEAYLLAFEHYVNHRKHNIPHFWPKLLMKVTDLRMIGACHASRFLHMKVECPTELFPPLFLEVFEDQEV

thyroid receptor (TR) = test: Receptor binding assay with TR from rat liver nuclei and [125I]T3; details: TR from rat liver nuclei, 1 nM [125I]T3, overnight at 4° C.; read-out: App.Kd
Procedure: Baxter, and […]. […] The apparent Kd's are calculated using the method described by […]

TR [3] = test: Receptor binding affinity stated in the structure discussion
[4] = half maximal CAT gene activation, GC or U937 cells, read-out: EC50

| Coactivation Assay RIP-140 (TR binding to RIP-140) | EC50 [1, 4] [nM] | Kd (thyroid receptor (TR)) [nM] | Structure (SMILES) | also measured |
| --- | --- | --- | --- | --- |
| – | – | – | CC(C)c1cc(Oc2c(Br)cc(C(=O)O)cc2Br)cc(C(C)C)c1O [Compound 11, 3,5-dibromo-4-(3′,5′-diisopropyl-4′-hydroxyphenoxy)benzoic acid] | IC50 (TR-α): 1600 nM; IC50 (TR-β): 910 nM |
| + | 1 | – | N[C@@H](Cc1cc(I)c(Oc2cc(I)c(O)c(I)c2)c(I)c1)C(=O)O [Compound T4, 3,5,3′,5′-tetraiodo-L-thyronine, reference compound] | affinity for the receptor as % of the affinity of T3 (TR [2]): 2% |
| – | – | – | Cc1cc(C[C@H](N)C(=O)O)cc(C)c1Oc1ccc(O)c(C(C)C)c1 [Dimit, 3,5-dimethyl-3′-isopropylthyronine] | Kd (human TR-β LBD): 8 nM; Kd (human TR-α LBD): 6 nM |
| – | – | – | CC(C)c1cc(Oc2c(Br)cc(C[C@H](N)C(=O)O)cc2Br)ccc1O [IpBr2, 3,5-dibromo-3′-isopropylthyronine] | Kd (human TR-α LBD): 0.017 nM |
| + | 100 | 4 | O=C(N[C@@H](Cc1cc(I)c(Oc2ccc(O)c(I)c2)c(I)c1)C(=O)O)C(c1ccccc1)c1ccccc1 [TS1] | – |
| – | – | 1400 | CCCCCCCCCCCCCCCCC(=O)N[C@@H](Cc1cc(I)c(Oc2ccc(O)c(I)c2)c(I)c1)C(=O)O [TS2] | – |
| + | 10 | 4 | O=C(N[C@@H](Cc1cc(I)c(Oc2ccc(O)c(I)c2)c(I)c1)C(=O)O)OCC1c2ccccc2-c2ccccc21 [TS3] | – |
| + | – | 8 | CC(C)(C)OC(=O)N[C@@H](Cc1cc(I)c(Oc2ccc(O)c(I)c2)c(I)c1)C(=O)O [TS4] | – |
| + | 1000 | 220 | CC(C)(C)OC(=O)NC(Cc1cc(I)c(Oc2ccc(O)cc2)c(I)c1)C(=O)O (stereo not shown) [TS5] | – |
| + | – | – | CC(C)c1cc(Oc2c(I)cc(CC(N)C(=O)O)cc2I)ccc1O (stereo not shown) [TS9, reference compound] | – |
| – | – | – | O=C(O)Cc1cc(I)c(Oc2ccc(O)c(I)c2)c(I)c1 [Triac, 3,5,3′-triiodothyroacetic acid] | affinity for the alpha versus beta isoforms (TR [3]): equal affinity; binding affinity compared with T3 (TR [2]): equal to that of T3 |

| Structure (SMILES) | Coactivation Assay RIP-140 (TR binding to RIP-140) | EC50 [1, 4] [nM] | Kd (thyroid receptor (TR)) [nM] | also measured |
| --- | --- | --- | --- | --- |
| N[C@@H](Cc1cc(I)c(Oc2ccc(O)c(I)c2)c(I)c1)C(=O)O [Compound T3, 3,5,3′-triiodothyronine, reference compound] | + | – | – | EC50 [1]: 0.1 nM |

From patent US20070027215A1, “Nuclear receptor ligands and ligand binding domains” (The Regents of the University of California, priority 1995, published 2007)
